Source: PubChem BioAssay AID1963446 (Molecular Pharmacology Branch, DTP, NCI, 2024)

System: 993429-296-R-J1-PDC complex spheroid growth, percent test/control
Assay: Anticancer human tumor 993429-296-R-J1-PDC patient-derived uterine sarcoma cell line growth inhibition [Asc]
Conditions: for IC50: curve of first compound; for viability, T/C: stronger effect = lower value
Summary of the method: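 Concentration series start at each agent's clinical Cmax, or at 10 microM when none is established, and drop in half-log steps; agents are applied alone or together to complex spheroids built with HUVEC and hMSC.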

[1] = second compound 0.1 µM, first compound 0.0316 µM
[2] = second compound 0.1 µM, first compound 0.1 µM
[3] = second compound 0.1 µM, first compound 0.316 µM
[4] = second compound 0.1 µM, first compound 1 µM
[5] = second compound 0.1 µM, first compound 3.16 µM
[6] = second compound 0.1 µM, first compound 10 µM
[7] = second compound 0.316 µM, first compound 0.0316 µM
[8] = second compound 0.316 µM, first compound 0.1 µM
[9] = second compound 0.316 µM, first compound 0.316 µM
[10] = second compound 0.316 µM, first compound 1 µM
[11] = second compound 0.316 µM, first compound 3.16 µM
[12] = second compound 0.316 µM, first compound 10 µM
[13] = second compound 1 µM, first compound 0.0316 µM
[14] = second compound 1 µM, first compound 0.1 µM
[15] = second compound 1 µM, first compound 0.316 µM
[16] = second compound 1 µM, first compound 1 µM
[17] = second compound 1 µM, first compound 3.16 µM
[18] = second compound 1 µM, first compound 10 µM
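Also: spheroids exposed to compounds for seven days.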

Row | SMILES | IC50 (second compound 0.1 µM) [nM] | IC50 (second compound 0.316 µM) [nM] | IC50 (second compound 1 µM) [nM] | viability, T/C [1] [%] | viability, T/C [2] [%] | viability, T/C [3] [%] | viability, T/C [4] [%] | viability, T/C [5] [%] | viability, T/C [6] [%] | viability, T/C [7] [%] | viability, T/C [8] [%] | viability, T/C [9] [%] | viability, T/C [10] [%] | viability, T/C [11] [%] | viability, T/C [12] [%] | viability, T/C [13] [%] | viability, T/C [14] [%] | viability, T/C [15] [%] | viability, T/C [16] [%] | viability, T/C [17] [%] | other results
1 | C=CC(=O)N1CCN(c2nc(=O)n(-c3c(C)ccnc3C(C)C)c3nc(-c4c(O)cccc4F)c(F)cc23)C(C)C1 (stereo not given) + Cc1c(S(C)(=O)=O)c(-c2cc(F)cc(N3CCN(c4ccc(NS(=O)(=O)c5ccc(NC(CCN6CCC(C(=O)OCCCP(=O)(O)O)CC6)CSc6ccccc6)c(S(=O)(=O)C(F)(F)F)c5)cc4)CC3)c2)c(-c2ccc(Cl)cc2)n1C(C)C | > 10000 | 4920 | 4340 | 83.5 | 81.1 | 91.9 | 75.1 | 76.5 | 54.6 | 79 | 80.6 | 69.2 | 75 | 62.3 | 30.5 | 62.9 | 53.5 | 76.8 | 62.1 | 47.3 | IC50 (second compound 3.16 µM): 524 nM; IC50 (second compound 10 µM): 5690 nM; viability, T/C [18]: 41.8%; viability, T/C (second compound 3.16 µM, first compound 0.0316 µM): 51.1%; viability, T/C (second compound 3.16 µM, first compound 0.1 µM): 59.9%; viability, T/C (second compound 3.16 µM, first compound 0.316 µM): 54.4%; viability, T/C (second compound 3.16 µM, first compound 1 µM): 43.8%; viability, T/C (second compound 3.16 µM, first compound 3.16 µM): 34.9%; viability, T/C (second compound 3.16 µM, first compound 10 µM): 45.9%; viability, T/C (second compound 10 µM, first compound 0.0316 µM): 106%; viability, T/C (second compound 10 µM, first compound 0.1 µM): 81%; viability, T/C (second compound 10 µM, first compound 0.316 µM): 86.6%; viability, T/C (second compound 10 µM, first compound 1 µM): 86.1%; viability, T/C (second compound 10 µM, first compound 3.16 µM): 64.7%; viability, T/C (second compound 10 µM, first compound 10 µM): 34.9%
2 | C=C(F)C(=O)N1CCN(c2nc(OCC3CCCN3C)nc3c2CCN(c2cccc4cccc(Cl)c24)C3)CC1CC#N (stereo not given) + CNC(C)C(=O)NC1CN(S(=O)(=O)c2cccc(S(=O)(=O)N3CCC4CCC(C(=O)NC(c5ccccc5)c5ccccc5)N4C(=O)C(NC(=O)C(C)NC)C3)c2)CCC2CCC(C(=O)NC(c3ccccc3)c3ccccc3)N2C1=O | 617 | < 31.6 | 55.9 | 51.4 | 54.7 | 54.8 | 47.4 | 7.4 | 0.12 | 45.9 | 52.4 | 40.3 | 45.4 | 7.07 | 0.12 | 57.8 | 37.8 | 37.6 | 34.2 | 3.13 | IC50 (second compound 0.01 µM): 1010 nM; IC50 (second compound 0.0316 µM): 1040 nM; viability, T/C (second compound 0.01 µM, first compound 0.0316 µM): 54.2%; viability, T/C (second compound 0.01 µM, first compound 0.1 µM): 59.8%; viability, T/C (second compound 0.01 µM, first compound 0.316 µM): 57.6%; viability, T/C (second compound 0.01 µM, first compound 1 µM): 50.4%; viability, T/C (second compound 0.01 µM, first compound 3.16 µM): 7.74%; viability, T/C (second compound 0.01 µM, first compound 10 µM): 0.13%; viability, T/C (second compound 0.0316 µM, first compound 0.0316 µM): 59.9%; viability, T/C (second compound 0.0316 µM, first compound 0.1 µM): 58.6%; viability, T/C (second compound 0.0316 µM, first compound 0.316 µM): 55.4%; viability, T/C (second compound 0.0316 µM, first compound 1 µM): 51.7%; viability, T/C (second compound 0.0316 µM, first compound 3.16 µM): 5.7%; viability, T/C (second compound 0.0316 µM, first compound 10 µM): 0.12%; viability, T/C [18]: 0.2%
